PubChem BioAssay (NCI)
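The compound was tested at five concentrations on cells cultured in 96-well plates, with a 48-hour exposure period. GI50 is the concentration that inhibits growth by half. Definition used: TGI = concentration required for complete inhibition of growth.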

Columns and labels:
Assay in all cases: growth of human tumour cells (NCI), 48 h
HCT-15 colon = tested on: HCT-15 colon
CAKI-1 renal = tested on: CAKI-1 renal
MALME-3M melanoma = tested on: MALME-3M melanoma
IGROV1 ovarian = tested on: IGROV1 ovarian
SK-MEL-2 melanoma = tested on: SK-MEL-2 melanoma
HOP-62 NSCLC = tested on: HOP-62 NSCLC
KM12 colon = tested on: KM12 colon
NCI-H23 lung = tested on: NCI-H23 lung
LOX IMVI melanoma = tested on: LOX IMVI melanoma
OVCAR-8 ovarian = tested on: OVCAR-8 ovarian

Row | SMILES | TGI (HCT-15 colon) | TGI (CAKI-1 renal) | TGI (MALME-3M melanoma) | TGI (IGROV1 ovarian) | TGI (SK-MEL-2 melanoma) | TGI (HOP-62 NSCLC) | TGI (KM12 colon) | TGI (NCI-H23 lung) | TGI (LOX IMVI melanoma) | TGI (OVCAR-8 ovarian) | GI50 (HCT-15 colon) | GI50 (CAKI-1 renal) | GI50 (MALME-3M melanoma) | GI50 (IGROV1 ovarian) | GI50 (SK-MEL-2 melanoma) | GI50 (HOP-62 NSCLC) | GI50 (KM12 colon) | GI50 (NCI-H23 lung) | GI50 (LOX IMVI melanoma) | GI50 (OVCAR-8 ovarian)
1 | COC(=O)C1C(OCc2ccccc2)C2CCC1(OC)C=C2C (stereo not given) | > 100 µM | > 100 µM | > 100 µM | > 100 µM | > 93.7 µM | > 100 µM | > 100 µM | > 100 µM | > 100 µM | > 100 µM | – | – | – | – | – | – | – | – | – | –
2 | OCc1ccc(N(CCN2CCCC2)Cc2ccc(F)cc2)cc1Cl | 50.1 µM | 19.4 µM | 40.2 µM | 16.8 µM | 33 µM | 42.1 µM | 34.9 µM | > 100 µM | 31.5 µM | 30.3 µM | 18.6 µM | 4.15 µM | 22.3 µM | 3.27 µM | 17 µM | 17.9 µM | 17.4 µM | 32.4 µM | 15.6 µM | 14 µM
3 | O=C(c1ccc(Cl)cc1)c1ccc(OCCSCCCCCCCCCCSCCOc2ccc(C(=O)c3ccc(Cl)cc3)cc2)cc1 | > 100 µM | > 100 µM | > 100 µM | > 100 µM | > 100 µM | > 100 µM | > 100 µM | > 100 µM | > 100 µM | > 100 µM | – | – | – | – | – | – | – | – | – | –
4 | O=C(COc1cccc(/C=C2\CSc3ccccc3C2=O)c1)c1ccc(Cl)cc1 | 5.37 µM | 10.1 µM | 4.76 µM | 4.26 µM | 3.45 µM | 6.12 µM | 2.75 µM | 4.15 µM | 2.73 µM | 6.81 µM | 1.92 µM | 3.97 µM | 2.01 µM | 2.02 µM | 1.76 µM | 2.15 µM | 1.29 µM | 1.92 µM | 1.39 µM | 2.53 µM
5 | NC1CCC(N[C@@H]2C[C@H]2c2ccccc2)CC1 (stereo not given in full) | > 100 µM | > 100 µM | 84.7 µM | > 100 µM | > 100 µM | > 100 µM | > 100 µM | > 100 µM | > 100 µM | > 100 µM | 74.4 µM | 32 µM | 21.1 µM | 92.5 µM | > 100 µM | 95.4 µM | > 100 µM | > 100 µM | 69.6 µM | > 100 µM
6 | COc1cc(Nc2nc3ccc(C(F)(F)F)cc3nc2-c2ccccc2)cc(OC)c1OC | > 100 µM | 79.4 µM | > 100 µM | > 100 µM | > 100 µM | > 100 µM | > 100 µM | > 100 µM | 15.5 µM | > 100 µM | – | – | – | – | – | – | – | – | – | –
7 | COc1ccc2c(c1)/C(=N/OC(C)=O)c1c-2c(=O)[nH]c2ccccc12 | 38.1 µM | 25.6 µM | 29.8 µM | 11.8 µM | 29 µM | 34.4 µM | 19.6 µM | 16.2 µM | 29.4 µM | 31.8 µM | 16.1 µM | 11.5 µM | 13.2 µM | 1.52 µM | 13.6 µM | 18 µM | 3.84 µM | 2.34 µM | 14.8 µM | 14.7 µM
8 | NS(=O)(=O)c1ccc(NC(=O)c2cccc3cc4ccccc4nc23)cc1 | > 100 µM | > 100 µM | > 100 µM | > 100 µM | > 100 µM | > 100 µM | > 100 µM | > 100 µM | > 97.3 µM | > 100 µM | – | – | – | – | – | – | – | – | – | –
9 | COc1cc(/C=C2\C(=O)Nc3cccc(Cl)c32)cc(OC)c1OC | > 100 µM | > 100 µM | > 100 µM | > 100 µM | > 100 µM | > 100 µM | > 100 µM | > 100 µM | > 100 µM | > 100 µM | > 100 µM | > 100 µM | > 100 µM | > 100 µM | > 100 µM | 32.6 µM | > 100 µM | > 100 µM | > 100 µM | > 100 µM
10 | COc1cc2c(cn1)[nH]c1ccccc12 | > 100 µM | > 100 µM | > 100 µM | > 100 µM | > 100 µM | > 100 µM | > 100 µM | > 100 µM | > 100 µM | > 100 µM | – | – | – | – | – | – | – | – | – | –
11 | CCCN(CCSSCCNc1nc(N(C)O)nc(N(C)O)n1)c1nc(N(C)O)nc(N(C)O)n1 | > 100 µM | > 100 µM | > 100 µM | > 100 µM | > 100 µM | > 100 µM | > 100 µM | > 100 µM | > 100 µM | > 100 µM | 4.28 µM | 2.47 µM | 6.29 µM | 32.3 µM | 18.6 µM | 4.49 µM | 6.25 µM | 18 µM | 6.63 µM | 5.26 µM
12 | Cn1c(=O)c(Oc2ccccc2)cc2cnc(NC3CCOCC3)nc21 | > 25 µM | > 25 µM | > 25 µM | > 25 µM | > 25 µM | > 25 µM | > 25 µM | > 25 µM | > 25 µM | > 25 µM | > 25 µM | > 25 µM | > 25 µM | > 25 µM | > 25 µM | > 25 µM | > 25 µM | > 25 µM | > 25 µM | > 25 µM
13 | CN(C)CCCn1c2nc(=O)[nH]c(=O)c-2nc2cc(Cl)c(Cl)cc21 | 21.5 µM | 4.66 µM | 26.8 µM | 13.9 µM | 16.1 µM | 15.9 µM | 26 µM | 23.5 µM | 7.36 µM | 10.6 µM | 4.03 µM | 1.83 µM | 9.28 µM | 4.65 µM | 4.81 µM | 4.14 µM | 8.2 µM | 8.04 µM | 2.37 µM | 3.16 µM
14 | NNC(=O)/C(NC(=O)c1ccccc1)=C(\N)c1ccc(Cl)cc1 | > 100 µM | > 100 µM | > 100 µM | > 100 µM | > 100 µM | > 100 µM | > 100 µM | > 100 µM | > 100 µM | > 100 µM | – | – | – | – | – | – | – | – | – | –
15 | CC(C)CN(CC(C)C)C(=O)C1CCCC[C@@H]1C(=O)O (stereo not given in full) | > 100 µM | > 100 µM | > 100 µM | > 100 µM | > 100 µM | > 100 µM | > 100 µM | > 100 µM | > 100 µM | > 100 µM | – | – | – | – | – | – | – | – | – | –
